Data from PubChem BioAssay (NCI).
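96-well plates; 48 h exposure; 5 concentrations. Endpoints by linear interpolation between flanking doses. Not reached: highest tested concentration assigned. TGI is the concentration that stops growth completely.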

Legend:
Assay in all cases: DTP human tumour cell line panel, 48 h
HT29 colon = tested on: HT29 colon
A498 renal = tested on: A498 renal
PC-3 prostate = tested on: PC-3 prostate
DU-145 prostate = tested on: DU-145 prostate
BT-549 breast = tested on: BT-549 breast
SW-620 colon = tested on: SW-620 colon
RXF 393 renal = tested on: RXF 393 renal
MDA-N = tested on: MDA-N
CAKI-1 renal = tested on: CAKI-1 renal
MCF7 breast = tested on: MCF7 breast
UACC-257 melanoma = tested on: UACC-257 melanoma
HCT-15 colon = tested on: HCT-15 colon
SNB-75 CNS = tested on: SNB-75 CNS
SF-268 CNS = tested on: SF-268 CNS
EKVX NSCLC = tested on: EKVX NSCLC
OVCAR-3 ovarian = tested on: OVCAR-3 ovarian
SK-OV-3 ovarian = tested on: SK-OV-3 ovarian
MOLT-4 leukemia = tested on: MOLT-4 leukemia

Row | Compound | TGI (HT29 colon) [µM] | TGI (A498 renal) [µM] | TGI (PC-3 prostate) [µM] | TGI (DU-145 prostate) [µM] | TGI (BT-549 breast) [µM] | TGI (SW-620 colon) [µM] | TGI (RXF 393 renal) [µM] | TGI (MDA-N) [µM] | TGI (CAKI-1 renal) [µM] | TGI (MCF7 breast) [µM] | TGI (UACC-257 melanoma) [µM] | TGI (HCT-15 colon) [µM] | TGI (SNB-75 CNS) [µM] | TGI (SF-268 CNS) [µM] | TGI (EKVX NSCLC) [µM] | TGI (OVCAR-3 ovarian) [µM] | TGI (SK-OV-3 ovarian) [µM] | TGI (MOLT-4 leukemia) [µM]
1 | Cc1ccc2c(c1C)C(=O)/C(=C/c1cccc(C)c1C(=O)O)C2 | > 100 | 99.2 | > 100 | > 100 | > 100 | > 100 | > 100 | > 100 | > 100 | > 65.2 | > 100 | > 100 | > 100 | > 100 | > 100 | > 100 | > 100 | > 100
2 | Cc1ccc(NC(=O)CC(=O)n2nc(C)c(N=Nc3cccc(C)c3)c2C)cc1 | > 100 | > 100 | > 100 | > 100 | > 100 | > 100 | > 100 | > 100 | > 100 | > 100 | > 100 | > 100 | 62.3 | > 100 | > 100 | > 100 | > 100 | > 100
3 | C[C@H](CCC(=O)NCC(=O)O)[C@H]1CC[C@H]2[C@@H]3[C@H](O)C[C@@H]4C[C@H](O)CC[C@]4(C)[C@H]3CC[C@]12C | > 100 | > 100 | > 100 | > 100 | > 100 | > 100 | > 100 | > 100 | > 100 | > 100 | > 100 | > 100 | > 100 | > 100 | > 100 | > 100 | > 100 | > 100
4 | Nc1cc2c3c(cccc3c1)C(=O)N(c1ccc(OCCN3CCCC3)cc1)C2=O | 29.8 | 91.5 | 46.5 | > 92.8 | 34.3 | 97 | 32.2 | 34.7 | > 61.5 | 31.5 | 31.5 | 26.8 | 25.3 | > 59.7 | 46.1 | 29.7 | 42 | 55.8
5 | CC1C2(C)OCC(C#N)(C(=N)O2)C1(C#N)C#N (stereo not given) | 35.3 | > 100 | 83.3 | 74.3 | > 100 | > 100 | 65.7 | 41.7 | 25 | 52.3 | 71.2 | 26.3 | > 100 | 74.3 | 52.7 | 28.4 | > 100 | > 100
6 | O=C(NCCCCCN1CCC2(CCCCC2)CC1)C(C1CCCCC1)C1CCCCC1 | 4.62 | 9.42 | 8.17 | 9.75 | 15.4 | 8.05 | 8.92 | 3.51 | 11.6 | 5.37 | 3.43 | 12.2 | 9.48 | 12.5 | 9.66 | 8.97 | 15.1 | 4.87
7 | CC(C)(C)[Si](C)(C)OC[C@H](/C=C\CCCC(=O)O)NC1(c2ccccc2)c2ccccc2-c2ccccc21 | 47.6 | 32.1 | 40.3 | > 100 | 91.6 | > 100 | 25 | > 100 | 93.9 | 34.5 | 43.4 | 50.9 | > 100 | 35.4 | 40.9 | 36.1 | 72.8 | 33.9
8 | CSCCCNC(=O)[C@H](CSC)NC(=O)c1csc(CCNC(=O)[C@@H](NSc2ccccc2[N+](=O)[O-])C(C)O)n1 (stereo not given in full) | > 100 | > 100 | > 100 | > 100 | > 100 | > 100 | > 100 | > 100 | > 100 | > 100 | > 100 | > 100 | > 100 | > 100 | > 100 | > 100 | > 100 | > 100
9 | O=P(O)(O)CN1CCNCCN(CP(=O)(O)O)CC1 | > 100 | > 100 | > 100 | > 100 | > 100 | > 100 | > 100 | > 72.9 | > 100 | > 100 | > 100 | > 100 | > 100 | > 100 | > 100 | > 100 | > 100 | > 100
10 | CCOC(=O)C1=C(C)N(Cc2ccccc2)C2(O)C=CC(=O)C3=C(O)c4ccccc4C(=O)C312 (stereo not given) | > 100 | 60.3 | > 100 | 38.3 | 20.2 | 28.2 | 19.7 | 22.3 | 37.2 | 3.44 | 32.6 | 22 | 55.4 | 23.7 | 39.6 | 20.2 | > 100 | > 100
